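Following 48 hours of exposure in 96-well plates, responses at five concentrations were used to interpolate endpoints linearly. GI50 = concentration required for 50% inhibition of growth. TGI: total growth inhibition.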
Columns and labels:
Test in all cases: DTP human tumour cell line panel, 48 h
[1] = test system: SNB-19 CNS
[2] = test system: HS 578T breast
[3] = test system: ACHN renal
[4] = test system: CAKI-1 renal
[5] = test system: MDA-MB-231 breast
[6] = test system: HCC-2998 colon
[7] = test system: OVCAR-3 ovarian
[8] = test system: SF-539 CNS
[9] = test system: M14 melanoma
[10] = test system: SK-OV-3 ovarian
[11] = test system: SNB-75 CNS
[12] = test system: UO-31 renal
[13] = test system: RPMI-8226 leukemia
[14] = test system: HL-60(TB) leukemia
[15] = test system: DU-145 prostate
[16] = test system: UACC-257 melanoma
[17] = test system: MCF7 breast
[18] = test system: HOP-62 NSCLC
[19] = test system: OVCAR-4 ovarian
[20] = test system: 786-0 renal
[21] = test system: SK-MEL-2 melanoma
[22] = test system: COLO 205 colon
[23] = test system: KM12 colon
[24] = test system: A498 renal
[25] = test system: IGROV1 ovarian
[26] = test system: HCT-116 colon
[27] = test system: SK-MEL-28 melanoma
[28] = test system: SW-620 colon
[29] = test system: NCI-H23 lung
[30] = test system: TK-10 renal
[31] = test system: PC-3 prostate
[32] = test system: SF-268 CNS
[33] = test system: NCI/ADR-RES ovarian
[34] = test system: SK-MEL-5 melanoma
[35] = test system: CCRF-CEM leukemia
[36] = test system: BT-549 breast
[37] = test system: A549 NSCLC
[38] = test system: UACC-62 melanoma
[39] = test system: K-562 leukemia
[40] = test system: OVCAR-8 ovarian
[41] = test system: SR leukemia
[42] = test system: OVCAR-5 ovarian
[43] = test system: HOP-92 NSCLC
[44] = test system: NCI-H460 lung
[45] = test system: SF-295 CNS
[46] = test system: MALME-3M melanoma
[47] = test system: NCI-H522 lung
[48] = test system: U251 CNS
[49] = test system: MOLT-4 leukemia
[50] = test system: LOX IMVI melanoma
[51] = test system: T-47D breast
[52] = test system: NCI-H226 lung
[53] = test system: SN12C renal
[54] = test system: HCT-15 colon
[55] = test system: HT29 colon
[56] = test system: MDA-MB-435

SMILES: Cc1cc(Nc2cccc(F)c2)nc(NCc2ccccc2)n1
- GI50 [1]: 11.1 µM
- TGI [1]: 26.8 µM
- GI50 [2]: 7.26 µM
- TGI [2]: 32.7 µM
- GI50 [3]: 7.76 µM
- TGI [3]: 26.1 µM
- GI50 [4]: 3.94 µM
- TGI [4]: 17.8 µM
- GI50 [5]: 3.28 µM
- TGI [5]: 14.1 µM
- GI50 [6]: 2 µM
- TGI [6]: 4.19 µM
- GI50 [7]: 8.65 µM
- TGI [7]: 21.7 µM
- GI50 [8]: 10.8 µM
- TGI [8]: 24.7 µM
- GI50 [9]: 13.3 µM
- TGI [9]: 30.8 µM
- GI50 [10]: 10.6 µM
- TGI [10]: 22.5 µM
- GI50 [11]: 0.799 µM
- TGI [11]: 13 µM
- GI50 [12]: 3.26 µM
- TGI [12]: 19.3 µM
- GI50 [13]: 2.03 µM
- TGI [13]: 7.97 µM
- GI50 [14]: 3.91 µM
- TGI [14]: 17.2 µM
- GI50 [15]: 11.3 µM
- TGI [15]: 23.9 µM
- GI50 [16]: 3.95 µM
- TGI [16]: 15.5 µM
- GI50 [17]: 3.14 µM
- TGI [17]: 15.7 µM
- GI50 [18]: 10.2 µM
- TGI [18]: 23.4 µM
- GI50 [19]: 4.42 µM
- TGI [19]: 37.6 µM
- GI50 [20]: 6.62 µM
- TGI [20]: 22.1 µM
- GI50 [21]: 11 µM
- TGI [21]: 25.4 µM
- GI50 [22]: 1.73 µM
- TGI [22]: 3.31 µM
- GI50 [23]: 5.46 µM
- TGI [23]: 19.7 µM
- GI50 [24]: 2.75 µM
- TGI [24]: 10.7 µM
- GI50 [25]: 5.44 µM
- TGI [25]: 24.6 µM
- GI50 [26]: 3.34 µM
- TGI [26]: 18.2 µM
- GI50 [27]: 7.21 µM
- TGI [27]: 20.6 µM
- GI50 [28]: 6.62 µM
- TGI [28]: 23.7 µM
- GI50 [29]: 4.96 µM
- TGI [29]: 21.9 µM
- GI50 [30]: 8.29 µM
- TGI [30]: 21.4 µM
- GI50 [31]: 4.34 µM
- TGI [31]: 18.7 µM
- GI50 [32]: 11.3 µM
- TGI [32]: 28.6 µM
- GI50 [33]: 6.38 µM
- TGI [33]: 38 µM
- GI50 [34]: 2.73 µM
- TGI [34]: 10.1 µM
- GI50 [35]: 4.75 µM
- TGI [35]: 22.1 µM
- GI50 [36]: 7.45 µM
- TGI [36]: 23.2 µM
- GI50 [37]: 6.44 µM
- TGI [37]: 22.8 µM
- GI50 [38]: 5.61 µM
- TGI [38]: 20.2 µM
- GI50 [39]: 2.89 µM
- TGI [39]: 12.9 µM
- GI50 [40]: 3.9 µM
- TGI [40]: 18.2 µM
- GI50 [41]: 3.28 µM
- TGI [41]: 10.1 µM
- GI50 [42]: 12.4 µM
- TGI [42]: 29.9 µM
- GI50 [43]: 1.81 µM
- TGI [43]: 11 µM
- GI50 [44]: 3.84 µM
- TGI [44]: 15.8 µM
- GI50 [45]: 6.57 µM
- TGI [45]: 27.1 µM
- GI50 [46]: 3.8 µM
- TGI [46]: 17.7 µM
- GI50 [47]: 8.45 µM
- TGI [47]: 24.7 µM
- GI50 [48]: 3.32 µM
- TGI [48]: 8.34 µM
- GI50 [49]: 4.89 µM
- TGI [49]: 19.8 µM
- GI50 [50]: 7.12 µM
- TGI [50]: 28.7 µM
- GI50 [51]: 3.71 µM
- TGI [51]: 18.5 µM
- GI50 [52]: 11.8 µM
- TGI [52]: 35.2 µM
- GI50 [53]: 6.12 µM
- TGI [53]: 23 µM
- GI50 [54]: 4.98 µM
- TGI [54]: 24.6 µM
- GI50 [55]: 3.7 µM
- TGI [55]: 13.4 µM
- GI50 [56]: 5.72 µM
- TGI [56]: 20 µM

From PubChem BioAssay (NCI)
